Data published in article PMC6423783, “Flavokawain B targets protein neddylation for enhancing the anti-prostate cancer effect of Bortezomib via Skp2 degradation” (Cell Communication and Signaling : CCS, 2019).

Target: T1, NAE1 regulatory subunit APP-BP1 (NEDD8 activating enzyme, NAE) (Homo sapiens, UniProt Q13564)
T1 construct: APP-BP1/UBA3 (NEDD8 ligase E1); with UBA3
T1 sequence (Q13564 2-534): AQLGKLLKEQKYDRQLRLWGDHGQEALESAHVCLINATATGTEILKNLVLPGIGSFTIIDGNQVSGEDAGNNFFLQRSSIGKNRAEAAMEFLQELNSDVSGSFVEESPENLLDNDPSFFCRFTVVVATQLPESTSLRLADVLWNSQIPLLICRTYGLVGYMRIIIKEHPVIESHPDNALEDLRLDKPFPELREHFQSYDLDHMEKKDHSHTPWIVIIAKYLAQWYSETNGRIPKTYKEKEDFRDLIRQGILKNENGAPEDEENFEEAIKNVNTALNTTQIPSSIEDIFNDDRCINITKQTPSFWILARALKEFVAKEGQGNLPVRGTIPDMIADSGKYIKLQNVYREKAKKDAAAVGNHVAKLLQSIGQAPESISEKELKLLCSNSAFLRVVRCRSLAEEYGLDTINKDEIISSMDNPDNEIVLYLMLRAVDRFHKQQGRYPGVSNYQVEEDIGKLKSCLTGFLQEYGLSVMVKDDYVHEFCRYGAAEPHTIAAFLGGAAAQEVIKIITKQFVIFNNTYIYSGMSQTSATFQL
T1 sequence (Q8TBC4 2-463 partner): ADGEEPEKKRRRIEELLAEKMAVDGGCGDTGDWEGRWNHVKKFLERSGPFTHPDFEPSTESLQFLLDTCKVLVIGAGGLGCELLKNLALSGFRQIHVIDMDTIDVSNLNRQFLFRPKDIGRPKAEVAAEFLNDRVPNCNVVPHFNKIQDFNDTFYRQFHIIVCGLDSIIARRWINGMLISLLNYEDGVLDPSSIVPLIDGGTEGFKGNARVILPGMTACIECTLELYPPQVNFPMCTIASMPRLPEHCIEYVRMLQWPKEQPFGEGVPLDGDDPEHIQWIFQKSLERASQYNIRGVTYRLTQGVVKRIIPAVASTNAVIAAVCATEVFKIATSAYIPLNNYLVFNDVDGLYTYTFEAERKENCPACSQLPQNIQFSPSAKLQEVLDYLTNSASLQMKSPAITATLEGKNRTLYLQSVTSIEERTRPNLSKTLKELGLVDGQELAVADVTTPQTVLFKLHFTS
Assay: in vitro NEDD8 initiation conjugation assay (APP-BP1/UBA3, UbcH12, NEDD8; Western readout), supported by CETSA of APP-BP1 in PC3 cells
Format: biochemical
Experimental: in vitro NEDD8 initiation conjugation assay (APP-BP1/UBA3, UbcH12, NEDD8; Western readout), supported by CETSA of APP-BP1 in PC3 cells on NAE1 regulatory subunit APP-BP1 (NEDD8 activating enzyme, NAE) | The relative density of NEDD8-Ubc12 to the control was analyzed to have an estimated IC50 of approximately11μM

SMILES: COc1cc(O)c(C(=O)/C=C/c2ccccc2)c(OC)c1 [FKB, Flavokawain B]
- IC50: ~11 µM
